Test results published in ChEMBL document CHEMBL1201862, “PubChem BioAssay data set” (2004).
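Each compound was tested at five concentrations against cells in 96-well plates for 48 hours. The concentration for 50% growth inhibition is given as GI50.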 Activity calls are given as the source filed them. Cut-off read from the data, not from the text of the source: active = GI50 up to about 1.1 µM and inactive = higher.

What was measured:
Assay in all cases: NCI-60 cell line screen, 48 h
A498 = tested on: A498
COLO 205 = tested on: COLO 205
DU-145 = tested on: DU-145
HL-60 = tested on: HL-60
HT-29 = tested on: HT-29
M14 = tested on: M14
MDA-N = tested on: MDA-N
NCI-H522 = tested on: NCI-H522
OVCAR-3 = tested on: OVCAR-3
OVCAR-8 = tested on: OVCAR-8
PC-3 = tested on: PC-3
SF-268 = tested on: SF-268
SF-539 = tested on: SF-539
SK-MEL-5 = tested on: SK-MEL-5
SK-OV-3 = tested on: SK-OV-3
SNB-19 = tested on: SNB-19
SR = tested on: SR
UACC-62 = tested on: UACC-62
UO-31 = tested on: UO-31

Measured: GI50

O=C(NNC(=S)NCc1ccccc1)c1csc(NC(=S)NC2CCCCC2)n1
inactive: A498 42 µM | COLO 205 18.2 µM | DU-145 59 µM | HL-60 > 100 µM | HT-29 3.42 µM | M14 32.6 µM | MDA-N 28.9 µM | NCI-H522 35.1 µM | OVCAR-3 42.1 µM | OVCAR-8 39.4 µM | PC-3 37.3 µM | SF-268 27.6 µM | SF-539 38 µM | SK-MEL-5 13.8 µM | SK-OV-3 50.6 µM | SNB-19 76.6 µM | SR 31.5 µM | UACC-62 40.1 µM | UO-31 21.8 µM

CN(C)CCC[N+]1=Nc2cccc3cccc(c23)N1
inactive: A498 27.4 µM | COLO 205 > 10 µM | HL-60 18.2 µM | HT-29 33.6 µM | M14 21.1 µM | NCI-H522 38 µM | OVCAR-3 > 100 µM | OVCAR-8 46.6 µM | SF-268 > 100 µM | SF-539 99.5 µM | SK-MEL-5 14.1 µM | SK-OV-3 > 100 µM | SNB-19 > 100 µM | SR 16.9 µM | UACC-62 34.1 µM | UO-31 96.4 µM

COc1ccc(N2C(=O)C3c4[nH]c5ccc(OC)cc5c4C4CCC(C(C)(C)C)CC4C3C2=O)cc1 (centres undefined)
inactive: A498 19.6 µM | COLO 205 12.3 µM | HL-60 43 µM | HT-29 32.5 µM | M14 19.9 µM | NCI-H522 20.7 µM | OVCAR-3 92.3 µM | OVCAR-8 25 µM | SF-268 14.3 µM | SF-539 12.8 µM | SK-MEL-5 21.1 µM | SK-OV-3 15.2 µM | SNB-19 46.3 µM | SR 17.4 µM | UACC-62 27.2 µM | UO-31 > 100 µM

CCOC(=O)c1c(C)cc(=O)n2c1[nH]c1ccccc12
inactive: A498 40.3 µM | COLO 205 > 100 µM | DU-145 > 100 µM | HL-60 > 100 µM | HT-29 > 100 µM | M14 > 100 µM | MDA-N 64 µM | OVCAR-3 > 100 µM | OVCAR-8 > 100 µM | PC-3 > 100 µM | SF-539 31 µM | SK-MEL-5 > 100 µM | SK-OV-3 > 100 µM | SNB-19 88.3 µM | UACC-62 > 100 µM | UO-31 > 100 µM

Cc1c(C(=O)C/C(=N\O)C(=O)Nc2cc(Cl)c(Cl)cc2Cl)[n+]([O-])c2ccccc2[n+]1[O-]
inactive: A498 19.9 µM | COLO 205 2.92 µM | HL-60 16.1 µM | HT-29 15.2 µM | M14 4.5 µM | NCI-H522 3.96 µM | OVCAR-3 2.37 µM | OVCAR-8 8.91 µM | SF-268 17.8 µM | SF-539 14.3 µM | SK-MEL-5 5.47 µM | SK-OV-3 43.7 µM | SNB-19 36.1 µM | SR 24.2 µM | UACC-62 4.57 µM | UO-31 24.3 µM

CC(C)Oc1ccc2c(c1)OCC1Cc3ccccc3OC21 (centres undefined)
inactive: A498 > 100 µM | COLO 205 > 10 µM | DU-145 > 100 µM | HL-60 > 100 µM | HT-29 41.4 µM | M14 > 100 µM | MDA-N 49.2 µM | NCI-H522 79.1 µM | OVCAR-3 > 100 µM | OVCAR-8 > 100 µM | PC-3 > 100 µM | SF-268 > 100 µM | SF-539 > 100 µM | SK-MEL-5 23 µM | SK-OV-3 > 100 µM | SR > 100 µM | UACC-62 > 100 µM | UO-31 > 100 µM

C=CCN1C(=O)C(=O)N(CC=C)C(=O)C1=O
inactive: A498 > 100 µM | COLO 205 > 100 µM | HL-60 > 100 µM | HT-29 > 100 µM | M14 > 100 µM | NCI-H522 > 100 µM | OVCAR-3 > 100 µM | OVCAR-8 > 100 µM | SF-268 > 100 µM | SF-539 > 100 µM | SK-MEL-5 > 100 µM | SK-OV-3 > 100 µM | SNB-19 > 100 µM | SR > 100 µM | UACC-62 > 100 µM | UO-31 > 100 µM

CC1=C(C(=O)NNC(=O)Cc2ccccc2)CC(C(=O)NNC(=O)Cc2ccccc2)=C(C)N1
inactive: A498 > 100 µM | COLO 205 > 100 µM | DU-145 > 100 µM | HL-60 25.5 µM | HT-29 > 100 µM | M14 > 100 µM | MDA-N > 100 µM | OVCAR-3 > 100 µM | OVCAR-8 > 100 µM | SF-268 > 100 µM | SF-539 > 100 µM | SK-MEL-5 > 100 µM | SK-OV-3 > 100 µM | SNB-19 > 100 µM | UACC-62 35.4 µM | UO-31 > 100 µM

CC/N=C(/C#N)NCC
inactive: A498 > 100 µM | COLO 205 99.3 µM | HL-60 > 100 µM | HT-29 40.2 µM | M14 > 100 µM | NCI-H522 > 100 µM | OVCAR-3 > 100 µM | OVCAR-8 > 100 µM | SF-268 > 100 µM | SF-539 > 100 µM | SK-MEL-5 > 100 µM | SK-OV-3 > 100 µM | SNB-19 > 100 µM | SR > 100 µM | UACC-62 > 100 µM | UO-31 > 100 µM
